The test system of the test is AGS cells (KRAS^G12D). Nature of the test: Detection of cell proliferation in vitro by MTT/MTS method (cell activity experiment). As to conditions: Homo sapiens, AGS, 72 h, AGS cells; MTT/MTS; 3 days of drug treatment; read-out: AGS IC50. Format: cell-based. Here is the method:
The above cells were cultured in a complete medium containing 10% fetal bovine serum, 100 IU/mL penicillin and 100 jag/mL streptomycin, in the aseptic incubator with 95% relative humidity and 5% CO2 concentration.
2. Reagents: F12K, D-PBS, FBS, Penicillin Streptomycin, Tryple, MTT (5 mg/mL)
Appropriate amount of compound powder was weighed in a 1.5 mL centrifuge tube, then the corresponding volume of dimethyl sulfoxide (DMSO) was added to form a 20 mM reserve solution. The solution was packed separately and stored in a refrigerator at −20° C. away from light.
The cells were inoculated in a cell culture bottle, added an appropriate amount of complete medium, and cultured in a sterile incubator. When the degree of cell confluence reached more than 80%, subculture was carried out.
The adherent cells in logarithmic growth phase were digested by trypsin or the suspension cells were collected by centrifugation and counted. 90 μL cell suspension was inoculated into 96-well plate according to the cell inoculation density of 1000 cells per well, and 10 μL of 10-fold final concentration compound diluted by culture medium was added 24 hours later. Compared with the hole with the same volume of 5% DMSO as control, the final concentration of DMSO was 0.5%. After 3 days of drug treatment, the cell viability was detected by MTT. The specific methods are as follows: 10 μL MTT per well was added into the incubator for 4 hours, the supernatant was discarded and 150 μL DMSO was added to dissolve the crystal methylazan, and the absorbance of 490 nm was detected by enzyme labeling instrument, or 10 μL MITS per well was added to the incubator for 4 hours, and […] absorbance was detected directly by enzyme labeling instrument. GraphPad Prism 6 software makes dose-effect curve and calculates IC50.
Regarding `CCC1CCc2cc(O)cc(-c3c(Cl)cc4c(N5C[C@H]6CC[C@@H](C5)N6)nc(OC[C@@]56CCCN5C[C@H](F)C6)nc4c3F)c21` (stereo partly drawn) [Example 302, 7-(4-((1R,5S)-3,8-diazabicyclo[3.2.1]octan-3-yl)-6-chloro-8-fluoro-2-(((2R,7aS)-2-fluorotetrahydro-1H-pyrrolizin-7a(5H)-yl)methoxy)quinazolin-7-yl)-1-ethyl-2,3-dihydro-1H-inden-5-ol], the half-maximal inhibitory concentration (IC50) (as a rule, the concentration needed to halve the response being measured) amounted to 22 nM.
As for `Oc1cc2c(c(-c3c4c(c5c(N6C[C@H]7CC[C@@H](C6)N7)nc(OC[C@@]67CCCN6C[C@H](F)C7)nc5c3F)OCO4)c1)CCCC2` [Example 390, 4-(9-((1R,5S)-3,8-diazabicyclo[3.2.1]octan-3-yl)-5-fluoro-7-(((2R,7aS)-2-fluorotetrahydro-1H-pyrrolizin-7a(5H)-yl)methoxy)-[1,3]dioxolo[4,5-f]quinazolin-4-yl)-5,6,7,8-tetrahydronaphthalen-2-ol], the IC50 turned out to be 150 nM.
On to `[O-][S+]1C2CCC1CN(c1nc(OC[C@@]34CCCN3C[C@H](F)C4)nc3c(F)c(-c4cc(O)cc5ccc(F)c(F)c45)ccc13)C2` (stereo partly drawn) [Example 165, (1R,5S,8R)-3-(7-(7,8-difluoro-3-hydroxynaphthalen-1-yl)-8-fluoro-2-(((2R,7aS)-2-fluorotetrahydro-1H-pyrrolizin-7a(5H)-yl)methoxy)quinazolin-4-yl)-8-thia-3-azabicyclo[3.2.1]octane 8-oxide], for which the 50% inhibitory concentration (IC50) is greater than 2500 nM.
As for `C#Cc1c(F)ccc2cc(O)cc(-c3ccc4c(NCC5(N(C)C)CCC5)nc(OC[C@@]56CCCN5C[C@H](F)C6)nc4c3F)c12` [Example 430, 4-(4-(((1-(dimethylamino)cyclobutyl)methyl)amino)-8-fluoro-2-(((2R,7aS)-2-fluorotetrahydro-1H-pyrrolizin-7a(5H)-yl)methoxy)quinazolin-7-yl)-5-ethynyl-6-fluoronaphthalen-2-ol], the half-inhibitory concentration (IC50) amounted to 35 nM.
For the compound `Oc1cc(O)c2c(C#Cc3ccc4c(N5C[C@H]6CC[C@@H](C5)N6)nc(OC[C@@]56CCCN5C[C@H](F)C6)nc4c3F)c(F)ccc2c1` [Example 366, 8-((4-((1R,5S)-3,8-diazabicyclo[3.2.1]octan-3-yl)-8-fluoro-2-(((2R,7aS)-2-fluorotetrahydro-1H-pyrrolizin-7a(5H)-yl)methoxy)quinazolin-7-yl)ethynyl)-7-fluoronaphthalene-1,3-diol], the IC50 was 2100 nM.
`OCC1CCc2cc(O)cc(-c3ncc4c(N5C[C@H]6CC[C@@H](C5)N6)nc(OC[C@@]56CCCN5C[C@H](F)C6)nc4c3F)c21` (stereo partly drawn) [Example 265, 7-(4-((1R,5S)-3,8-diazabicyclo[3.2.1]octan-3-yl)-8-fluoro-2-(((2R,7aS)-2-fluorotetrahydro-1H-pyrrolizin-7a(5H)-yl)methoxy)pyrido[4,3-d]pyrimidin-7-yl)-1-(hydroxymethyl)-2,3-dihydro-1H-inden-5-ol]: the 50% inhibitory concentration (IC50) was greater than 10000 nM.
Regarding `CCc1c(F)ccc2cc(O)cc(-c3ncc4c(N5C[C@H]6CC[C@@H](C5)N6)c(C(F)(F)F)c(OC[C@@]56CCCN5C[C@H](F)C6)nc4c3F)c12` [Example 197, 4-(4-((1R,5S)-3,8-diazabicyclo[3.2.1]octan-3-yl)-8-fluoro-2-(((2R,7aS)-2-fluorotetrahydro-1H-pyrrolizin-7a(5H)-yl)methoxy)-3-(trifluoromethyl)-1,6-naphthyridin-7-yl)-5-ethyl-6-fluoronaphthalen-2-ol], the half-maximal inhibitory concentration (IC50) was greater than 2500 nM.
Regarding `O=C1CCCc2cc(O)cc(-c3ncc4c(N5C[C@H]6CC[C@@H](C5)N6)nc(OC[C@@]56CCCN5C[C@H](F)C6)nc4c3F)c21` [Example 249, 8-(4-((1R,5S)-3,8-diazabicyclo[3.2.1]octan-3-yl)-8-fluoro-2-(((2R,7aS)-2-fluorotetrahydro-1H-pyrrolizin-7a(5H)-yl)methoxy)pyrido[4,3-d]pyrimidin-7-yl)-6-hydroxy-3,4-dihydronaphthalen-1(2H)-one], the half-maximal inhibitory concentration (IC50) is greater than 2500 nM.

For the origin of these results see US20240300980A1, “HETEROCYCLIC COMPOUNDS AS KRAS INHIBITOR, AND PREPARATION THEREFOR AND USE THEREOF IN TREATMENT” (SHANGHAI KECHOW PHARMA, INC., priority 2021, published 2024).
